The target in experiment [1] is T1, Proteasome Macropain subunit MB1 (Homo sapiens) (UniProt P28074).
T1 sequence (whole entry): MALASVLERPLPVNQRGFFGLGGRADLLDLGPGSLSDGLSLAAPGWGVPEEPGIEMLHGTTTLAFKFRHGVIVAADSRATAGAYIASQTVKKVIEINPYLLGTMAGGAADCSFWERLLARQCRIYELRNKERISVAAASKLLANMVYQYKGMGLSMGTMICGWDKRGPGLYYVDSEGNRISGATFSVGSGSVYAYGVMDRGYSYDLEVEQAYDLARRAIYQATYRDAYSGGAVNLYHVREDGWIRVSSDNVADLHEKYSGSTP
Nature of the experiment: Inhibition of 20s immunoproteasome beta5 chymotrypsin-like activity in human spleen using Suc-Leu-Leu-Val-Tyr-AMC as substrate at 50 uM after 10 mins by fluorescence assay relative to control.

Experiment [2] concerns the target Proteasome Macropain subunit (Homo sapiens) (UniProt P49721). Briefly: Inhibition of 20s immunoproteasome beta2 trypsin-like activity in human spleen using Boc-Leu-Arg-Arg-AMC as substrate at 50 uM after 10 mins by fluorescence assay relative to control.
The target is the same in experiment [3]. Briefly: Inhibition of 20s constitutive proteasome beta2 trypsin-like activity in human erythrocytes using Boc-Leu-Arg-Arg-AMC as substrate at 50 uM after 10 mins by fluorescence assay relative to control. The format is cell-based.
Experiment [4] deals with T2, Proteasome component C5 (Homo sapiens) (UniProt P20618).
T2 sequence (whole entry): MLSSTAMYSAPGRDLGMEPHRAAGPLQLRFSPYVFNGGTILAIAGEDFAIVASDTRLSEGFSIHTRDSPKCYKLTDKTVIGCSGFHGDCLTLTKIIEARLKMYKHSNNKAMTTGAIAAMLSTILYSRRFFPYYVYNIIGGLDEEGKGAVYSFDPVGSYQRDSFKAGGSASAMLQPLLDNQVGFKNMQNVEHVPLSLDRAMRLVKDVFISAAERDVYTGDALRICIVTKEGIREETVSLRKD
Nature of the experiment: Inhibition of 20s constitutive proteasome beta1 caspase-like activity in human erythrocytes using Z-Leu-Leu-Glu-AMC as substrate at 50 uM after 10 mins by fluorescence assay relative to control. Format: cell-based.

For experiment [5], the target named is T1, Proteasome Macropain subunit MB1 (Homo sapiens). Briefly: Inhibition of 20s constitutive proteasome beta5 chymotrypsin-like activity in human erythrocytes using Suc-Leu-Leu-Val-Tyr-AMC as substrate at 50 uM after 10 mins by fluorescence assay relative to control. The format is cell-based.
The nature of experiment [6]: Growth inhibition of human MM1R cells after 24 hrs by MTT assay. Format: functional. The settings on record: MM.1R. On the technique in general: Formazan colour is commonly taken as a measure of viable cells.
Experiment [7] concerns the target T3, Proteasome Macropain subunit MB1 (Homo sapiens, UniProt P28074).
T3 sequence (P28074 whole entry): T1 sequence (whole entry)
Briefly: Inhibition of 20s constitutive proteasome beta5 chymotrypsin-like activity in human erythrocytes using Suc-Leu-Leu-Val-Tyr-AMC as substrate after 10 mins by fluorescence assay.

The target of experiment [8] is T1, Proteasome Macropain subunit MB1 (Homo sapiens). Briefly: Selectivity ratio of inhibitory concentration for 20s constitutive proteasome beta5 chymotrypsin-like activity in human erythrocytes to Ki for 20s immunoproteasome beta5 chymotrypsin-like activity in human spleen. The format is cell-based.
The target is the same in experiment [9]. Briefly: Reversible inhibition of 20s constitutive proteasome beta5 chymotrypsin-like activity in human erythrocytes using Suc-Leu-Leu-Val-Tyr-AMC as substrate at 50 uM preincubated for 30 mins followed by compound dilution measured after 30 mins by fluorescence assay. The format is cell-based.

Usually inhibition stands for the drop in the measured response relative to a control, in per cent. In general, pIC50 refers to the negative decadic logarithm of the IC50, by convention in mol/L. A higher pIC50 goes with a low IC50. Usually pKi stands for the negative decadic logarithm of the Ki, by convention in mol/L. High values mean a low Ki, low ones a high Ki.

pIC50, pKi: −log10 of the molar value. The source made the active and inactive calls. The rule behind the calls is not given here.

Chain of Proteasome Macropain subunit (Homo sapiens) (P49721 whole entry): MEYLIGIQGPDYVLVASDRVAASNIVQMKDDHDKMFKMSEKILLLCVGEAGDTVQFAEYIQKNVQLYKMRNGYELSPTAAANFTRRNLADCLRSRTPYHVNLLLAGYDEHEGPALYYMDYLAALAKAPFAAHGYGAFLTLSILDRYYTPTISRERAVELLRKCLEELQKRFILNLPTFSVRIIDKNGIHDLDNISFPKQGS

As to `O=C1CNC(=S)N1c1ccccc1`, the values for the inhibition in experiment [1], in [4] and in experiment [5] were 53%, 32% and 47%, respectively. Also, the inhibition entry in [2] and in [3] was “inactive” in each case.
Take `O=C1/C(=C/c2ccc(Oc3ccccc3)cc2)NC(=S)N1c1ccccc1`: the inhibition stood at 58% in experiment [1], 53% in experiment [2], 5% in [3] and 13% in experiment [5]. The inhibition result in experiment [4] is “inactive”.
`COc1ccc(/C=C2\NC(=S)N(c3ccccc3)C2=O)cc1`: the inhibition was 29% in experiment [2], 35% in [3], 56% in experiment [4] and 45% in experiment [5]. In experiment [6], this compound had a pIC50 of 4.71.
As for `O=C1/C(=C/c2ccc(Oc3ccccc3)cc2)NC(=S)N1c1cccc2ccccc12`, the inhibition in experiment [1] turned out to be 56%; in [3] it was 57%; in experiment [5], 20%.
Take `COc1cc(/C=C2\NC(=S)N(c3ccccc3)C2=O)ccc1O`: the inhibition came to 32% in experiment [3] and 54% in [4]. In experiment [7], this compound gave a pKi of 4.63. This compound gave a negative logarithm of the IC50 (pIC50) in experiment [6] of 4.69.
On to `O=C1/C(=C/c2cccc(Oc3ccccc3)c2)NC(=S)N1c1ccccc1`, for which the inhibition in experiment [1] was determined as 56%; in [2], 32%; in experiment [5], 39%. Also, the inhibition result in experiment [3] and in experiment [4] was “inactive” in each case.
Take `O=C1CNC(=S)N1c1cccc2ccccc12`: the inhibition entry in experiment [1], in experiment [2] and in experiment [5] was “inactive” each time. The inhibition in [3] was 38%; in experiment [4], 47%.
For the compound `COc1cccc(/C=C2\NC(=S)N(c3ccccc3)C2=O)c1`, the inhibition in experiment [2] was determined as 18%; in experiment [3] it was 36%; in experiment [4], 52%. Further, the pKi in experiment [7] was 4.75. This compound showed a pIC50 in experiment [6] of 4.59.
`CC(C)CC(NC(=O)[C@H](CC(C)C)NC(=O)OCc1ccccc1)C(=O)N[C@H](C=O)CC(C)C` (single isomer, unassigned) [MG-132] showed a pIC50 in experiment [6] of 4.84.
As for `COc1ccc(/C=C2\NC(=S)N(c3ccccc3)C2=O)cc1OC`, the inhibition in experiment [2] was found to be 50%; in experiment [3], 29%; in experiment [4], 58%. Besides, in [8], the Ratio turned out to be 7. In addition, in [9], the inhibition result was “Active”. This compound gave a pKi in experiment [7] of 4.87. Also, the pIC50 in experiment [6] was 4.44.
Turning to `COc1ccc(/C=C2\NC(=S)N(c3ccccc3)C2=O)cc1O`, the inhibition in experiment [2] turned out to be 45%; in experiment [3], 37%; in experiment [4] it was 28%; in experiment [5], 45%. The Ratio in experiment [8] is 20. Besides, in experiment [6], the pIC50 was 4.39.
For the compound `CSc1ccc(/C=C2\NC(=S)N(c3ccccc3)C2=O)cc1`, the figures for the inhibition in [1], in experiment [4] and in experiment [5] were 50%, 59% and 28%, respectively.

For the origin of these results see ChEMBL document CHEMBL4184119, “Identification of 2-thioxoimidazolidin-4-one derivatives as novel noncovalent proteasome and immunoproteasome inhibitors” (Bioorg Med Chem Lett, 2018).
